The values that follow come from publication PMC10460844, “Real‐Time Monitoring of Multitarget Antimicrobial Mechanisms of Peptoids Using Label‐Free Imaging with Optical Diffraction Tomography” (Advanced Science, 2023).

Square brackets hold non-standard residues; d marks the D form. Peptide text beside a SMILES is read from it. Gly(N(CH2)2(3-indolyl)) = O=C(O)CNCCc1c[nH]c2ccccc12; Nspe = C[C@H](NCC(=O)O)c1ccccc1; Nlys = NCCCCNCC(=O)O Some results are limits rather than exact numbers.

For one series, the system named is rat erythrocytes. The series can be described thus: Hemolysis assay. The class given is cell-based. The conditions noted are these: for HC10 / HC50: pH 7.4. The protocol:
The hemolysis assay was performed using rat erythrocytes in phosphate‐buffered saline (PBS), as reported by Mendes et al.^[ [45] ^] Animal studies were approved by the Laboratory Animal Resource Center of Gwangju Institute of Science and Technology. Blood was collected from a 13‐week‐old male Sprague‐Dawley rat in tubes containing 158 USP units of sodium heparin to prevent coagulation and centrifuged at 1000 rpm for 10 min at 4 °C. Plasma was removed carefully and erythrocyte pellets were washed three times with PBS (35 mM phosphate, pH 7.4, 150 mM NaCl). Next, 150 µL of a 10% erythrocyte suspension was mixed with 50 µL of serially diluted peptoids (0–100 µM) in a 96‐well black polypropylene plates (Greiner, Kremsmünster, Austria). Untreated erythrocytes and cells lysed by the addition of 1% Triton X‐100 were used as negative and positive controls, respectively, with the 1% Triton X‐100‐treated wells being accepted to represent 100% hemolysis. The reaction mixture was incubated at 37 °C for 60 min, and the plates were centrifuged at 1000 rpm for 15 min. Aliquots (150 µL) of the supernatant were transferred to fresh 96‐well plates, and the absorbance of each well was measured at 540 nm using a microplate reader. Hemolysis induced by peptoids was calculated as the percentage value of Triton X‐100 lysed cells. The percentage of hemolysis by the extracts was calculated according to the following formula: % hemolysis = [(Abs 540 nm in the peptoid solution – Abs 540 nm in PBS) / (Abs 540 nm in 1% Triton X‐100 – Abs 540 nm in PBS)] × 100. HC10 and HC50 were defined as the peptoid concentrations that caused 10% and 50% hemolysis in rat erythrocytes, respectively. H max indicates the percentage of hemolysis observed at the maximum peptoid concentration, 100 µM throughout this study.

Series [1] can be described thus: Analytical reversed-phase HPLC elution (hydrophobicity). It is filed as physicochemical. The conditions noted are these: Table S1; analytical RP-HPLC, SunFire C18, water/ACN + 0.1% TFA, 5 to 100% B linear over 30 min, 1 mL/min, UV 220 nm; approximate comparison of hydrophobicity. The procedure: 7. HPLC chromatogram, retention time (tR), and LC-MS data
HPLC analysis of peptoids was conducted using a Waters HPLC system equipped with a Waters 2489 UV/Visible Detector, 1525 Binary HPLC Pump, 2707 Autosampler, 5CH column oven, and a C18 column (SunFire C18, 4.6 × 250 mm, 5 μm; Waters Corp., Milford, MA, USA). The mobile phases were deionized water (A, with + 0.1% TFA) and acetonitrile (ACN; B, with + 0.1% TFA). Before sample injection, the column was conditioned with 5% B for 10 min. Then, the mobile phase was maintained at 5% B for 2 min, followed by increasing B to 100% using a linear gradient over 30 min. At this point, 100% B was maintained for 5 additional min. The flow rate of the mobile phase was 1 mL/min. The sample was detected by measuring absorbance at 220 nm. […]

A word on the HC50: it is the concentration giving 50% haemolysis.

As to `C[C@@H](c1ccccc1)N(CC(N)=O)C(=O)CN(C(=O)CN(CCCCN)C(=O)CN(CCc1c[nH]c2ccccc12)C(=O)CN(CCc1c[nH]c2ccccc12)C(=O)CN(CCCCN)C(=O)CN(C(=O)CN(C(=O)CN(CCCCN)C(=O)CN(C(=O)CN(C(=O)CNCCCCN)[C@@H](C)c1ccccc1)[C@@H](C)c1ccccc1)[C@@H](C)c1ccccc1)[C@@H](C)c1ccccc1)[C@@H](C)c1ccccc1` [peptoid 12], in the series with rat erythrocytes, the “Hmax (100 µM)” value came to 87.4±2.4%, the HC10 is 29.1 µM and the HC50 is 65.2 µM. Moreover, the HPLC elution in series [1] was 55.9 % MeCN.

Take `C[C@@H](c1ccccc1)N(CC(N)=O)C(=O)CN(C(=O)CN(CCCCN)C(=O)CN(C(=O)CN(C(=O)CN(CCCCN)C(=O)CN(CCc1c[nH]c2ccccc12)C(=O)CN(CCc1c[nH]c2ccccc12)C(=O)CN(CCCCN)C(=O)CN(C(=O)CN(C(=O)CNCCCCN)[C@@H](C)c1ccccc1)[C@@H](C)c1ccccc1)[C@@H](C)c1ccccc1)[C@@H](C)c1ccccc1)[C@@H](C)c1ccccc1` [peptoid 13]: in the series on rat erythrocytes, the “Hmax (100 µM)” value is recorded as 96.8±1.6%, the HC10 is 20.2 µM and the HC50 is listed as 41.3 µM. Besides, the HPLC elution in series [1] was 56.0 % MeCN.

In the case of `C[C@@H](c1ccccc1)N(CC(=O)N(CCc1c[nH]c2ccccc12)CC(=O)N(CCCCN)CC(=O)N(CC(=O)N(CC(=O)N(CCCCN)CC(=O)N(CC(=O)N(CC(=O)N(CCCCN)CC(=O)N(CC(=O)N(CCc1c[nH]c2ccccc12)CC(N)=O)[C@@H](C)c1ccccc1)[C@@H](C)c1ccccc1)[C@@H](C)c1ccccc1)[C@@H](C)c1ccccc1)[C@@H](C)c1ccccc1)C(=O)CNCCCCN` [peptoid 16] (H-[Nlys][Nspe][Gly(N(CH2)2(3-indolyl))][Nlys][Nspe][Nspe][Nlys][Nspe][Nspe][Nlys][Nspe][Gly(N(CH2)2(3-indolyl))]-NH2), in the series with rat erythrocytes, the “Hmax (100 µM)” value was found to be 100.3±1.7%, the HC10 came to 13.8 µM and the HC50 is 25.0 µM. The HPLC elution in series [1] is 54.7 % MeCN.

Turning to `C[C@@H](c1ccccc1)N(CC(=O)N(CCCCN)CC(=O)N(CC(=O)N(CC(=O)N(CCCCN)CC(=O)N(CC(=O)N(CC(=O)N(CCCCN)CC(=O)N(CC(=O)N(CCc1c[nH]c2ccccc12)CC(N)=O)[C@@H](C)c1ccccc1)[C@@H](C)c1ccccc1)[C@@H](C)c1ccccc1)[C@@H](C)c1ccccc1)[C@@H](C)c1ccccc1)C(=O)CN(CCc1c[nH]c2ccccc12)C(=O)CNCCCCN` [peptoid 17] (H-[Nlys][Gly(N(CH2)2(3-indolyl))][Nspe][Nlys][Nspe][Nspe][Nlys][Nspe][Nspe][Nlys][Nspe][Gly(N(CH2)2(3-indolyl))]-NH2), in the series on rat erythrocytes, the “Hmax (100 µM)” value was 87.3±6.7%, the HC10 is listed as 18.0 µM and the HC50 is 39.7 µM. Further, the HPLC elution in series [1] is recorded as 56.0 % MeCN.

For the molecule `C[C@@H](c1ccccc1)N(CC(=O)N(CCCCN)CC(=O)N(CC(=O)N(CC(=O)N(CCCCN)CC(=O)N(CCc1c[nH]c2ccccc12)CC(=O)N(CCc1c[nH]c2ccccc12)CC(N)=O)[C@@H](C)c1ccccc1)[C@@H](C)c1ccccc1)C(=O)CN(C(=O)CN(CCCCN)C(=O)CN(CCc1c[nH]c2ccccc12)C(=O)CN(CCc1c[nH]c2ccccc12)C(=O)CNCCCCN)[C@@H](C)c1ccccc1` [peptoid 18] (H-[Nlys][Gly(N(CH2)2(3-indolyl))][Gly(N(CH2)2(3-indolyl))][Nlys][Nspe][Nspe][Nlys][Nspe][Nspe][Nlys][Gly(N(CH2)2(3-indolyl))][Gly(N(CH2)2(3-indolyl))]-NH2), in the series with rat erythrocytes, the “Hmax (100 µM)” value worked out at 103.5±4.3%, the HC10 is 14.3 µM and the HC50 came out at 37.8 µM. The HPLC elution in series [1] was found to be 53.8 % MeCN.

`C[C@@H](c1ccccc1)N(CC(=O)N(CCCCN)CC(=O)N(CC(=O)N(CC(=O)N(CCCCN)CC(=O)N(CCc1c[nH]c2ccccc12)CC(=O)N(CCc1c[nH]c2ccccc12)CC(=O)N(CCCCN)CC(=O)N(CCc1c[nH]c2ccccc12)CC(=O)N(CCc1c[nH]c2ccccc12)CC(N)=O)[C@@H](C)c1ccccc1)[C@@H](C)c1ccccc1)C(=O)CN(C(=O)CNCCCCN)[C@@H](C)c1ccccc1` [peptoid 19] (H-[Nlys][Nspe][Nspe][Nlys][Nspe][Nspe][Nlys][Gly(N(CH2)2(3-indolyl))][Gly(N(CH2)2(3-indolyl))][Nlys][Gly(N(CH2)2(3-indolyl))][Gly(N(CH2)2(3-indolyl))]-NH2): in the series on rat erythrocytes, the “Hmax (100 µM)” value is given as 101.5±1.3%, the HC10 was found to be 3.8 µM and the HC50 was found to be 12.5 µM. Further, the HPLC elution in series [1] is on record as 52.8 % MeCN.

In the case of `C[C@@H](c1ccccc1)N(CC(N)=O)C(=O)CN(C(=O)CN(CCCCN)C(=O)CN(CCc1c[nH]c2ccccc12)C(=O)CN(CCc1c[nH]c2ccccc12)C(=O)CN(CCCCN)C(=O)CN(CCc1c[nH]c2ccccc12)C(=O)CN(CCc1c[nH]c2ccccc12)C(=O)CN(CCCCN)C(=O)CN(C(=O)CN(C(=O)CNCCCCN)[C@@H](C)c1ccccc1)[C@@H](C)c1ccccc1)[C@@H](C)c1ccccc1` [peptoid 20], in the series on rat erythrocytes, the “Hmax (100 µM)” value was 106.7±3.5%, the HC10 was 8.2 µM and the HC50 was 33.9 µM. Also, the HPLC elution in series [1] is listed as 52.7 % MeCN.

For `C[C@@H](c1ccccc1)N(CC(N)=O)C(=O)CN(C(=O)CN(CCCCN)C(=O)CN(C(=O)CN(C(=O)CN(CCCCN)C(=O)CN(CCc1c[nH]c2ccccc12)C(=O)CN(CCc1c[nH]c2ccccc12)C(=O)CN(CCCCN)C(=O)CN(CCc1c[nH]c2ccccc12)C(=O)CN(CCc1c[nH]c2ccccc12)C(=O)CNCCCCN)[C@@H](C)c1ccccc1)[C@@H](C)c1ccccc1)[C@@H](C)c1ccccc1` [peptoid 21], in the series with rat erythrocytes, the “Hmax (100 µM)” value amounted to 83.7±2.0%, the HC10 is recorded as 23.2 µM and the HC50 is 64.9 µM. In series [1], the HPLC elution amounted to 53.2 % MeCN.

For the molecule `C[C@@H](c1ccccc1)N(CC(=O)N(CCc1c[nH]c2ccccc12)CC(=O)N(CCCCN)CC(=O)N(CC(=O)N(CCc1c[nH]c2ccccc12)CC(=O)N(CCCCN)CC(=O)N(CC(=O)N(CCc1c[nH]c2ccccc12)CC(=O)N(CCCCN)CC(=O)N(CC(=O)N(CCc1c[nH]c2ccccc12)CC(N)=O)[C@@H](C)c1ccccc1)[C@@H](C)c1ccccc1)[C@@H](C)c1ccccc1)C(=O)CNCCCCN` [peptoid 22] (H-[Nlys][Nspe][Gly(N(CH2)2(3-indolyl))][Nlys][Nspe][Gly(N(CH2)2(3-indolyl))][Nlys][Nspe][Gly(N(CH2)2(3-indolyl))][Nlys][Nspe][Gly(N(CH2)2(3-indolyl))]-NH2), in the series on rat erythrocytes, the “Hmax (100 µM)” value is recorded as 108.6±1.1%, the HC10 stood at 6.9 µM and the HC50 is reported as 19.4 µM. Also, in series [1], the HPLC elution is 54.1 % MeCN.

In the case of `NCCCCNCC(=O)N(CCc1c[nH]c2ccccc12)CC(=O)N(CCc1c[nH]c2ccccc12)CC(=O)N(CCCCN)CC(=O)N(CCc1c[nH]c2ccccc12)CC(=O)N(CCc1c[nH]c2ccccc12)CC(=O)N(CCCCN)CC(=O)N(CCc1c[nH]c2ccccc12)CC(=O)N(CCc1c[nH]c2ccccc12)CC(=O)N(CCCCN)CC(=O)N(CCc1c[nH]c2ccccc12)CC(=O)N(CCc1c[nH]c2ccccc12)CC(N)=O` [peptoid 23] (H-[Nlys][Gly(N(CH2)2(3-indolyl))][Gly(N(CH2)2(3-indolyl))][Nlys][Gly(N(CH2)2(3-indolyl))][Gly(N(CH2)2(3-indolyl))][Nlys][Gly(N(CH2)2(3-indolyl))][Gly(N(CH2)2(3-indolyl))][Nlys][Gly(N(CH2)2(3-indolyl))][Gly(N(CH2)2(3-indolyl))]-NH2), in the series with rat erythrocytes, the “Hmax (100 µM)” value was 72.2±0.3%, the HC10 is listed as 17.1 µM and the HC50 turned out to be 45.2 µM. The HPLC elution in series [1] worked out at 53.0 % MeCN.

`C[C@@H](c1ccccc1)N(CC(N)=O)C(=O)CN(CCCCN)C(=O)CN(CCCCN)C(=O)CN(C(=O)CN(C(=O)CN(CCCCN)C(=O)CN(CCc1c[nH]c2ccccc12)C(=O)CN(C(=O)CN(CCCCN)C(=O)CN(C(=O)CN(C(=O)CNCCCCN)[C@@H](C)c1ccccc1)[C@@H](C)c1ccccc1)[C@@H](C)c1ccccc1)[C@@H](C)c1ccccc1)[C@@H](C)c1ccccc1` [peptoid 24]: in the series on rat erythrocytes, the “Hmax (100 µM)” value amounted to 1.5±0.0%, the HC10 was more than 100 µM and the HC50 is listed as more than 100 µM. In addition, in series [1], the HPLC elution is reported as 49.4 % MeCN.
